Results as given in PubChem BioAssay (NCI).
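Interpolation was linear, between the two tested concentrations surrounding the appropriate level; five concentrations were tested over 48 hours in 96-well plates. At the GI50, growth is halved. TGI: concentration producing complete growth inhibition.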

Columns and labels:
Assay in all cases: NCI anticancer screen, dose series, 48 h
SK-OV-3 ovarian = test system: SK-OV-3 ovarian
PC-3 prostate = test system: PC-3 prostate
HL-60(TB) leukemia = test system: HL-60(TB) leukemia
HCT-15 colon = test system: HCT-15 colon
MOLT-4 leukemia = test system: MOLT-4 leukemia
CCRF-CEM leukemia = test system: CCRF-CEM leukemia
OVCAR-4 ovarian = test system: OVCAR-4 ovarian
HS 578T breast = test system: HS 578T breast
EKVX NSCLC = test system: EKVX NSCLC
NCI/ADR-RES ovarian = test system: NCI/ADR-RES ovarian

Row | SMILES | GI50 (SK-OV-3 ovarian) [µM] | TGI (SK-OV-3 ovarian) [µM] | GI50 (PC-3 prostate) [µM] | TGI (PC-3 prostate) [µM] | GI50 (HL-60(TB) leukemia) [µM] | TGI (HL-60(TB) leukemia) [µM] | GI50 (HCT-15 colon) [µM] | TGI (HCT-15 colon) [µM] | GI50 (MOLT-4 leukemia) [µM] | TGI (MOLT-4 leukemia) [µM] | GI50 (CCRF-CEM leukemia) [µM] | TGI (CCRF-CEM leukemia) [µM] | GI50 (OVCAR-4 ovarian) [µM] | TGI (OVCAR-4 ovarian) [µM] | GI50 (HS 578T breast) [µM] | TGI (HS 578T breast) [µM] | GI50 (EKVX NSCLC) [µM] | TGI (EKVX NSCLC) [µM] | TGI (NCI/ADR-RES ovarian) [µM] | GI50 (NCI/ADR-RES ovarian) [µM]
1 | COc1ccc(-c2ccc(/C=N/n3cnn(CN4CCN(C)CC4)c3=S)o2)c([N+](=O)[O-])c1 | 36.4 | > 100 | 39.3 | > 100 | 17.7 | 49.9 | 16.7 | 37.5 | 31.2 | > 100 | 11.6 | 94.7 | > 100 | > 100 | 22.5 | 75.4 | 34.8 | > 100 | – | –
2 | COc1ccccc1NC(=O)CC(=O)NNCC(=O)Nc1nc(-c2ccccc2)cs1 | – | > 100 | – | – | – | > 100 | – | – | – | > 100 | – | > 100 | – | > 100 | – | – | – | > 100 | – | –
3 | CCOC(=O)C(=C=Cc1cccs1)C(=O)c1ccccc1 | – | 62.8 | – | – | – | 80.9 | – | 30.1 | – | 48.5 | – | > 100 | – | 39.4 | – | – | – | 31 | – | –
4 | O=C(Nc1ccc(Cl)cc1Cl)c1c/c(=N\O)c2ccc(O)cc2o1 | – | > 100 | – | – | – | > 100 | – | > 100 | – | > 100 | – | > 100 | – | > 100 | – | – | – | – | – | –
5 | O=C(O)C(=O)/C=C\c1ccc(Cl)cc1 | – | > 100 | – | – | – | > 100 | – | > 100 | – | > 100 | – | > 100 | – | > 100 | – | – | – | > 100 | – | –
6 | COC(=O)C1=C(SC)SC2(C(=O)OC)C3C=C(C)C4C(N13)C42C(=O)OC (configuration not stated) | – | > 100 | – | – | – | > 100 | – | > 100 | – | > 100 | – | > 100 | – | – | – | – | – | > 100 | – | –
7 | c1ccc2c(c1)N=c1ccccc1=P21c2ccccc2Nc2ccccc21 | – | 5.82 | – | 10.1 | – | – | – | > 71.4 | – | 1.67 | – | 0.737 | – | 19.9 | – | 3.89 | – | > 31.1 | > 100 | –
8 | COc1cc2c(cc1OC)[C@@H]1[C@H](C2=O)c2ccc([N+](=O)[O-])cc2C(=O)N1CCCBr | 1.32 | > 100 | 1.19 | > 70.4 | – | – | 0.369 | 9.27 | < 0.018 | – | < 0.01 | – | 2.4 | > 100 | 5.45 | 50.6 | 1.78 | > 100 | 9.93 | –
9 | CC(=O)OC1CC[C@@]2(C)C(CC(OC3OC(CO)C(O)C(O)C3O)[C@]3(C)C2CCC24CC23CC[C@H]4C(C)CC(O)[C@@H](O)C(C)(C)O)C1(C)C (some centres not stated) | – | > 50 | – | – | – | 24.9 | – | > 50 | – | 24.7 | – | 25.7 | – | > 50 | – | – | – | 48.6 | – | –
10 | COC(=O)CC[C@@H](NC(=O)C(C)NC(=O)COC1C(O)C(COC(=O)CCCCCCCCCCNC(=O)c2ccc([N+](=O)[O-])c3[nH]c4cc(Br)ccc4c(=O)c23)OC(OCc2ccccc2)C1NC(C)=O)C(N)=O (some centres not stated) | – | > 100 | – | – | – | 51.4 | – | > 100 | – | > 100 | – | > 100 | – | > 100 | – | – | – | > 100 | – | –
11 | O=C(N/C(=C\c1cc(Cl)ccc1Cl)c1nc2ccccc2[nH]1)c1ccccc1 | – | > 100 | – | – | – | 67 | – | 71.9 | – | 63.8 | – | 88.3 | – | > 100 | – | – | – | > 100 | – | –
12 | OCCOCn1nc(-c2ccccc2)nc1-c1cnccn1 | – | > 100 | – | > 100 | – | > 100 | – | > 100 | – | > 100 | – | > 100 | – | > 100 | – | – | – | > 100 | > 100 | –
13 | CCCCc1c2c(nc3c1CCc1cc(C=O)c(N)nc1-3)/C(=C/c1ccccc1)CCC2 | – | > 100 | – | – | – | > 100 | – | > 100 | – | > 100 | – | > 100 | – | > 100 | – | – | – | > 100 | – | –
14 | COC(=O)C1=C(O)C(C(=O)OC)[C@@]2(O)[C@@H](C(=O)OC)C(c3ccc(OC(=O)C(Cc4ccccc4)NC(C)=O)cc3)C[C@@H]1[C@@H]2C(=O)OC (some centres not stated) | 37.5 | > 100 | 27.6 | 91 | – | – | 13.3 | 28.4 | 14.8 | 46.4 | 32.9 | > 100 | – | – | 20.4 | 75.3 | 95.7 | > 100 | > 100 | 60.7
15 | CC(=O)OCC1OC(n2c(-c3ccc(N)cc3)cc(-c3ccco3)c(C#N)c2=O)C(OC(C)=O)C(OC(C)=O)C1OC(C)=O (configuration not stated) | – | > 50 | – | – | – | – | – | > 50 | – | > 50 | – | – | – | > 50 | – | – | – | > 50 | – | –
16 | NNC(=S)N/N=C(\c1nc2ccc(Cl)cc2[nH]c1=O)C(O)c1ccc(Cl)cc1Cl (configuration not stated) | – | > 100 | – | – | – | > 100 | – | > 100 | – | > 100 | – | > 100 | – | > 100 | – | – | – | > 100 | – | –
17 | COc1ccc(-c2cc(-c3ccco3)c(C#N)c(=O)n2C2OC(OC(=O)c3ccccc3)C(OC(=O)c3ccccc3)C2OC(=O)c2ccccc2)cc1 (configuration not stated) | – | – | – | – | – | – | – | > 100 | – | > 100 | – | > 100 | – | > 100 | – | – | – | > 100 | – | –
18 | O=C(CC1Sc2ccccc2NC1=O)Nc1ccc([N+](=O)[O-])cc1[N+](=O)[O-] (configuration not stated) | – | – | – | – | – | 41.9 | – | – | – | 62.6 | – | 39.6 | – | 52.6 | – | – | – | 69.2 | – | –
19 | O=C(CCCCCCCCC(=O)OCCCn1cc(C(=O)NC(=O)OCc2ccccc2)c(=O)[nH]c1=O)OCCCn1cc(C(=O)NC(=O)OCc2ccccc2)c(=O)[nH]c1=O | – | > 100 | – | – | – | > 100 | – | > 100 | – | > 100 | – | > 100 | – | > 100 | – | – | – | > 100 | – | –
20 | COc1cc2c3c(c1OC)C1(C=CC(=O)C=C1)CC3N(C(=O)OC(C)(C)C(Cl)(Cl)Cl)CC2 (configuration not stated) | – | 96.9 | – | – | – | 8.26 | – | 23.6 | – | 17.9 | – | 87.7 | – | 40.3 | – | – | – | 45.2 | – | –
21 | C[N+](C)(C)CC(=O)NC(=O)N/N=C\C(CC#N)CN(Cc1ccccc1)Cc1ccccc1 (configuration not stated) | – | > 100 | – | – | – | > 100 | – | > 100 | – | > 100 | – | > 100 | – | > 100 | – | – | – | > 100 | – | –
22 | COc1cc(OC)c(Oc2cccc(OC)c2OC)c(OC)c1 | – | > 100 | – | – | – | – | – | – | – | > 100 | – | > 100 | – | > 100 | – | – | – | > 100 | – | –
23 | O=c1c2ccccc2oc2nccnc12 | – | > 100 | – | – | – | – | – | > 100 | – | > 100 | – | > 100 | – | > 100 | – | – | – | > 100 | – | –
24 | COc1ncn(C2C=C(CO)C(O)C2O)c(=O)n1 (configuration not stated) | – | > 100 | – | – | – | > 100 | – | > 100 | – | > 100 | – | – | – | > 100 | – | – | – | > 100 | – | –
